# Experimental data from US9095126B2, “Targeting TGF-β as a therapy for Alzheimer's disease” (Yale University, priority 2008, dated 2015).
# B1: BMP-4: recombinant BMP-4, bone morphogenic protein (protein, UniProt P12644 293-408, looked up)
# Bone morphogenetic protein 4: SPKHHSQRARKKNKNCRRHSLYVDFSDVGWNDWIVAPPGYQAFYCHGDCPFPLADHLNSTNHAIVQTLVNSVNSSIPKACCVPTELSAISMLYLDEYDKVVLKNYQEMVVEGCGCR
# Columns and labels:
# [1] = system: TGF-β-activated Smad2/3 signaling; assay: Western blot for phosphorylated Smad2/3 (canonical TGF-β-activated signaling) in primary macrophages/microglia; format: cell-based, mouse; conditions: for TGF-β1-induced Smad2/3 phosphorylation: peripheral macrophages pre-treated 1 h with 0.1, 1.0 or 10.0 μM ALK5 inhibitor, then TGF-β1 5 ng/mL for 30 min (FIG. 9A); for phosphorylated Smad2/3 after TGF-β1 challenge: TGF-β1 1, 5 or 10 ng/ml with or without LPS 50 ng/ml, 30 min (FIG. 7A)
# Procedure: (§1) Cortical microglia were isolated from neonatal (1-2 day-old) CD11c-DNR or wild-type C57BL/6 mice according to previously published methods (Tan et al., 1999 Science 286: 2352-2355; Town et al., 2006 J. Immunol, 176: 3804-3812), Briefly, brains were isolated under sterile conditions and cerebral cortices were incubated in tripsin-EDTA (Invitrogen-Gibco) for 15 min at 37° C. Complete RPMI 1640 medium (supplemented with 10% FCS and 1 mM penicillin-streptomycin) was then added and brains were dissociated by trituration. Subsequently, cerebral cortex material was plated in 25 cm^2 flasks (Fisher Scientific), and the media was changed every 2-3 days. When the appearance of microglia was noted (typically 14 days after plating), culture media was exchanged with RPMI 1640 medium supplemented with 5% FCS, and the microglia were isolated by shaking in an incubator-shaker at 200 rpm for 2 h at 37° C. Peripheral MΦ were isolated from adult CD11c-DNR or wild-type C57BL/6 mice according to standard immunological methods by intraperitoneally (i.p.) injecting mice with 900 μL of 3% (w/v) sterile thioglycollate solution diluted in PBS. Four days later, mice were injected i.p. with 10 mL of ice-cold PBS for peritoneal lavage. Peripheral MΦ were then plated with complete medium (DMEM supplemented with 10% FCS and 1 mM penicillin streptomycin) and allowed to rest overnight. […] Microglia or peripheral MΦ from wild-type or CD11c-DNR mice were plated at 1×10^6 cells/well in 6-well tissue culture plates (BD Biosciences-Falcon) containing complete RPMI 1640 media or complete DMEM, respectively. These cells were then treated with a dose-range of recombinant TGF-β1 (R&D Systems; 1, 5, or 10 ng/mL) in the presence or absence of lipopolysachharide (LPS, 50 ng/mL) for 30 min. In a separate set of experiments, these cells were pre-treated for 1 h with ALK5 inhibitors SB-505124 or SB-431542 (Sigma-Aldrich; used at 0.1, 1.0, or 10.0 μM) and 5 ng/mL of recombinant TGF-β1 was added. For Aβ phagocytosis assay, MΦ were pulse-chased with Aβ as described elsewhere herein. Cells were rinsed in ice-cold PBS three times, and lysed ice-cold lysis buffer (containing 20 mM Tris-HCl pH 7.5, 150 mM NaCl, 1 mM Na2EDTA, 1 mM EGTA, 1% v/v Triton X-100, 2.5 mM sodium pyrophosphate, 1 mM glycerophosphate, 1 mM Na3VO4, 1 μg/ml leupeptin, and 1 mM PMSF). After lysis for 30 min on ice, cell lysates were centrifuged at 15,000×g for 30 min, and supernatants were aliquoted for Western blot analysis. Protein concentration was determined using the Bradford method, and aliquots corresponding to 50 μg of protein were run out on 12% Nu-PAGE™ polyacrylamide gels (Invitrogen) and proteins were transferred electrophoretically to Immobilon-P polyvinylidene difluoride membranes (Millipore). Membranes were blocked in blocking buffer (5% w/v nonfat dry milk in Tris-buffered saline containing 1% v/v Tween-20) for 3 h at ambient temperature and incubated overnight at 4° C. with primary polyclonal antibodies directed against total or phosphorylated SMAD2/3, SMAD1/5/8, PAK2, or ERK1/2 (Cell Signaling Technology). Membranes were then rinsed three times for 5 min each in dH2O, and incubated with anti-rabbit secondary antibody conjugated with horseradish peroxidase (diluted at 1/2000 in blocking buffer; GE Healthcare-Amersham Biosciences). After an additional three rinses for 5 min each in dH2O, the membranes were incubated for 5 min at ambient temperature with the enhanced chemiluminescence substrate (Thermo Fisher Scientific-Pierce Biotechnology), exposed to film, and developed.
# [2] = system: bone morphogenic protein-activated Smad1/5/8 signaling; assay: Western blot for phosphorylated Smad1/5/8 (alternate bone morphogenic protein-activated signaling) in peripheral macrophages; format: cell-based, mouse; conditions: for ratio of phospho-Smad1/5/8 to phospho-Smad2/3: ALK5 inhibitor treatment alone, 0.1, 1.0 or 10.0 μM, peripheral macrophages (FIG. 9A)
# Procedure: as §1
# peripheral macrophages = assay: Aβ phagocytosis assay, Aβ488 pulse-chase, confocal microscopy; format: cell-based, mouse; conditions: primary macrophages with ALK5 inhibitor 1 h, pulsed 4 h with pre-aggregated Aβ488, chased 15 min (FIG. 9B-9C)
# Procedure: FIG. 9, comprising FIGS. 9A-9F, is a series of images depicting Activin-like kinase (ALK) inhibition increases the ratio of phospho-SMAD1/5/8 to phospho-SMAD2/3 and promotes macrophage Aβ phagocytosis. FIG. 9A depicts peripheral MΦ pre-treated with a dose range (0.1, 1.0, or 10.0 μM) of ALK5 inhibitors (SB-505124 or SB-431542) for 1 h and then cultured in the presence or absence of recombinant TGF-β1 (5 ng/mL) for 30 min as indicated. Upper panels show Western blots for phospho (p) or total forms of SMAD2/3 or SMAD1/5/8. Lower panel is a histogram showing the ratio of pSMAD1/5/8 to pSMAD2/3. […] FIG. 9C depicts quantification of confocal images (n=3 randomly selected 10× magnification fields per group, group means±s.d.), and Aβ488-labeled area is shown in the upper graph, and numbers of Aβ488 phagocytic cells/field are shown in the lower graph. FIGS. 9D-9F depict gender-dependent reductions in Aβ levels in Tg2576+ animals and anti-inflammatory responses in brains of crossed mice. Biochemical analyses of (FIG. 9D) detergent-soluble and (FIG. 9E) guanidine HCl-soluble Aβ1-42 and Aβ1-42/Aβ1-40 in male vs. female Tg2576 positive mice (irrespective of CD11c-DNR transgene status). FIG. 9F depicts Q-PCR results for Tnfa (left) or Il10 (right) expression (relative to Hprt1) shown for four groups of mice, and statistical comparisons vs. wild-type mice. […]
# [3] = system: p21-activated kinase 2 (PAK2); assay: Western blot for phosphorylated PAK2 in peripheral macrophages; format: cell-based, mouse; conditions: wild-type peripheral macrophages; for PAK2 phosphorylation: 30 min, TGF-β1 5 ng/mL alone, BMP-2 50-200 ng/mL or BMP-4 12.5-50 ng/mL (FIG. 12B)
# Procedure: Cortical microglia were isolated from neonatal (1-2 day-old) CD11c-DNR or wild-type C57BL/6 mice according to previously published methods (Tan et al., 1999 Science 286: 2352-2355; Town et al., 2006 J. Immunol, 176: 3804-3812), Briefly, brains were isolated under sterile conditions and cerebral cortices were incubated in tripsin-EDTA (Invitrogen-Gibco) for 15 min at 37° C. Complete RPMI 1640 medium (supplemented with 10% FCS and 1 mM penicillin-streptomycin) was then added and brains were dissociated by trituration. Subsequently, cerebral cortex material was plated in 25 cm^2 flasks (Fisher Scientific), and the media was changed every 2-3 days. When the appearance of microglia was noted (typically 14 days after plating), culture media was exchanged with RPMI 1640 medium supplemented with 5% FCS, and the microglia were isolated by shaking in an incubator-shaker at 200 rpm for 2 h at 37° C. Peripheral MΦ were isolated from adult CD11c-DNR or wild-type C57BL/6 mice according to standard immunological methods by intraperitoneally (i.p.) injecting mice with 900 μL of 3% (w/v) sterile thioglycollate solution diluted in PBS. Four days later, mice were injected i.p. with 10 mL of ice-cold PBS for peritoneal lavage. Peripheral MΦ were then plated with complete medium (DMEM supplemented with 10% FCS and 1 mM penicillin streptomycin) and allowed to rest overnight.
# Microglia or peripheral MΦ from wild-type or CD11c-DNR mice were plated at 1×10^6 cells/well in 6-well tissue culture plates (BD Biosciences-Falcon) containing complete RPMI 1640 media or complete DMEM, respectively. These cells were then treated with a dose-range of recombinant TGF-β1 (R&D Systems; 1, 5, or 10 ng/mL) in the presence or absence of lipopolysachharide (LPS, 50 ng/mL) for 30 min. […] Protein concentration was determined using the Bradford method, and aliquots corresponding to 50 μg of protein were run out on 12% Nu-PAGE™ polyacrylamide gels (Invitrogen) and proteins were transferred electrophoretically to Immobilon-P polyvinylidene difluoride membranes (Millipore). […]
# microglia = conditions: exogenous addition of TGF-β1 to microglia (Wyss-Coray et al., 2001); cited from earlier work
# [4] = peripherally isolated macrophages, exogenous TGF-β1 5 ng/mL, 30 min (FIG. 9A)
# [5] = wild-type peripheral macrophages, 30 min, TGF-β1 5 ng/mL alone, BMP-2 50-200 ng/mL or BMP-4 12.5-50 ng/mL (FIG. 12B)
Molecule,TGF-β1-induced Smad2/3 phosphorylation [1],ratio of phospho-Smad1/5/8 to phospho-Smad2/3 [2],"macrophage Aβ phagocytosis (Aβ488-labeled area, Aβ488 phagocytic cells/field) (peripheral macrophages)","Smad2/3 phosphorylation [1, 5]","Smad1/5/8 phosphorylation [2, 5]",PAK2 phosphorylation [3],further results
"NC(=O)c1ccc(-c2nc(-c3ccc4c(c3)OCO4)c(-c3ccccn3)[nH]2)cc1 [SB-431542, reference compound]",blocked by ALK5 inhibition in a dose-dependent manner,increased,increased Aβ phagocytosis in a dose-dependent fashion,,,,
"Cc1cccc(-c2[nH]c(C(C)(C)C)nc2-c2ccc3c(c2)OCO3)n1 [SB-505124, reference compound]",blocked by ALK5 inhibition in a dose-dependent manner,increased,increased Aβ phagocytosis in a dose-dependent fashion,,,,
"TGF-β1: recombinant TGF-β1 (R&D Systems), cytokine",,,,promoted Smad2/3 phosphorylation,little impact,little impact,"phosphorylated Smad2/3 after TGF-β1 challenge ([1]; CD11c-DNR macrophages): nonresponsive; phosphorylated Smad2/3 after TGF-β1 challenge ([1]; CD11c-DNR microglia): responded to challenge; Smad2/3 phosphorylation ([1]; TGF-β1 5 ng/mL added to the BMP treatment conditions, wild-type peripheral macrophages): further promoted; Smad2/3 phosphorylation [1, 4]: increased phosphorylation; phosphorylated Smad2/3 after TGF-β1 challenge ([1]; wild-type microglia and macrophages): showed phosphorylated Smad2/3; Smad1/5/8 phosphorylation ([2]; CD11c-DNR macrophages, exogenous TGF-β1 and LPS together (FIG. 7B)): further augmented; Smad1/5/8 phosphorylation [2, 4]: increased phosphorylation; BMP-induced PAK2 phosphorylation ([3]; TGF-β1 5 ng/mL added to the BMP treatment conditions): inhibited; Aβ uptake by microglia (microglia): promotes increased Aβ uptake"
B1,,,,did not impact,promoted,promoted,"ratio of pSmad1/5/8 to pSmad2/3 ([2]; BMP monotreatment compared with TGF-β1 treatment alone, wild-type peripheral macrophages): increased"
